Results published in ChEMBL document CHEMBL5120966, “Spicatulides A-G, Phenolic-Monoterpenoid Hybrids from Chloranthus spicatus” (J Nat Prod, 2022).

Legend:
HepG2 [1] = assay: Inhibition of lipogenesis in human HepG2 cells assessed as reduction in sterol synthesis; assay type: functional, cell-based; conditions: dose 12.5-50 µM, DDE = dose-dependent effect
HepG2 [2] = assay: Inhibition of lipogenesis in human HepG2 cells assessed as reduction in fatty acids synthesis; assay type: functional, cell-based; conditions: dose 0.1-1 µM, DDE = dose-dependent effect

| SMILES | dose-dependent inhibition (qualitative) (HepG2 [1]) | inhibition (HepG2 [2]) |
| --- | --- | --- |
| COC(=O)[C@H]1c2cc(O)cc(C/C=C(\C)CCC=C(C)C)c2O[C@@]2(C)[C@@H](O)C=C(C(C)C)C[C@@H]12 | Dde | – |
| COC(=O)C[C@@]1(C/C=C(\C)CCC=C(C)C)CC(=O)C=C[C@@H]1O | Dde | Dde |
| COC(=O)Cc1cc(O)cc2c1O[C@@](C)(CCC=C(C)C)C=C2 | Dde | – |
| COC(=O)[C@@]1(O)c2cc(O)cc(C/C=C(\C)CCC=C(C)C)c2O[C@@]2(C)C=C[C@H](C(C)C)C[C@@H]12 | Dde | – |
